From PubChem BioAssay AID2060902 (Molecular Pharmacology Branch, DTP, NCI, 2025)

Tested on: 485368-065-R3-J5-PDC spheroids with HUVEC/MSC, viability
Test: Anticancer human tumor 485368-065-R3-J5-PDC patient-derived pancreatic carcinoma cell line growth inhibition [RAS]
Conditions: for IC50: curve of first compound; for viability, T/C: stronger effect = lower value
How it was run: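 Tumour cells grown as complex spheroids with HUVEC endothelial cells and mesenchymal stem cells, treated with RAS pathway inhibitor combinations. Each agent spans half-log steps from near clinical Cmax, or 10 microM where Cmax is unknown.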
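Also: spheroids exposed to agents for seven days before readout.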

With CCc1c2c(nc3ccc(O)cc13)-c1cc3c(c(=O)n1C2)COC(=O)[C@]3(O)CC + C#Cc1c(F)ccc2cc(O)cc(-c3ncc4c(N5CC6CCC(C5)N6)nc(OCC56CCCN5CC(F)C6)nc4c3F)c12 as the molecule, how does the IC50 (second compound 0.0316 µM) read?
Its IC50 is 2.01 nM.

What about the IC50 (second compound 0.1 µM) of the same molecule?
Its IC50 is 2.04 nM.

And the IC50 (second compound 0.316 µM)?
Its IC50 is 2.04 nM.

What about the IC50 (second compound 1 µM) of the same molecule?
The IC50 was 2.19 nM.

What about the IC50 (second compound 3.16 µM) of the same molecule?
Its IC50 is 1.66 nM.

What about the IC50 (second compound 10 µM) of the same molecule?
The IC50 was < 0.949 nM.

And the viability, T/C (second compound 0.0316 µM, first compound 0.000949 µM)?
The viability, T/C was 79.6%.

What about the viability, T/C (second compound 0.0316 µM, first compound 0.003 µM) of the same molecule?
Its viability, T/C is 34%.

What about the viability, T/C (second compound 0.0316 µM, first compound 0.00949 µM) of the same molecule?
Its viability, T/C is 14.3%.

And the viability, T/C (second compound 0.0316 µM, first compound 0.03 µM)?
The viability, T/C was 7.01%.

And the viability, T/C (second compound 0.0316 µM, first compound 0.0949 µM)?
Its viability, T/C is 5.19%.

What about the viability, T/C (second compound 0.0316 µM, first compound 0.3 µM) of the same molecule?
Its viability, T/C is 2.88%.

What about the viability, T/C (second compound 0.1 µM, first compound 0.000949 µM) of the same molecule?
The viability, T/C was 82.5%.

And the viability, T/C (second compound 0.1 µM, first compound 0.003 µM)?
The viability, T/C was 33.7%.

What about the viability, T/C (second compound 0.1 µM, first compound 0.00949 µM) of the same molecule?
Its viability, T/C is 12.5%.

What about the viability, T/C (second compound 0.1 µM, first compound 0.03 µM) of the same molecule?
Its viability, T/C is 7.37%.

What about the viability, T/C (second compound 0.1 µM, first compound 0.0949 µM) of the same molecule?
The viability, T/C was 4.36%.

What about the viability, T/C (second compound 0.1 µM, first compound 0.3 µM) of the same molecule?
Its viability, T/C is 3.26%.

What about the viability, T/C (second compound 0.316 µM, first compound 0.000949 µM) of the same molecule?
Its viability, T/C is 82.5%.

What about the viability, T/C (second compound 0.316 µM, first compound 0.003 µM) of the same molecule?
Its viability, T/C is 33.4%.

What about the viability, T/C (second compound 0.316 µM, first compound 0.00949 µM) of the same molecule?
Its viability, T/C is 13.3%.

What about the viability, T/C (second compound 0.316 µM, first compound 0.03 µM) of the same molecule?
Its viability, T/C is 5.82%.

What about the viability, T/C (second compound 0.316 µM, first compound 0.0949 µM) of the same molecule?
Its viability, T/C is 5.07%.

And the viability, T/C (second compound 0.316 µM, first compound 0.3 µM)?
The viability, T/C was 3.14%.

What about the viability, T/C (second compound 1 µM, first compound 0.000949 µM) of the same molecule?
Its viability, T/C is 91.2%.

What about the viability, T/C (second compound 1 µM, first compound 0.003 µM) of the same molecule?
The viability, T/C was 33.6%.

What about the viability, T/C (second compound 1 µM, first compound 0.00949 µM) of the same molecule?
Its viability, T/C is 14.8%.

What about the viability, T/C (second compound 1 µM, first compound 0.03 µM) of the same molecule?
Its viability, T/C is 6.95%.

And the viability, T/C (second compound 1 µM, first compound 0.0949 µM)?
Its viability, T/C is 4.29%.

And the viability, T/C (second compound 1 µM, first compound 0.3 µM)?
The viability, T/C was 3.15%.

What about the viability, T/C (second compound 3.16 µM, first compound 0.000949 µM) of the same molecule?
The viability, T/C was 71.5%.

What about the viability, T/C (second compound 3.16 µM, first compound 0.003 µM) of the same molecule?
The viability, T/C was 26.7%.

And the viability, T/C (second compound 3.16 µM, first compound 0.00949 µM)?
Its viability, T/C is 12.9%.

What about the viability, T/C (second compound 3.16 µM, first compound 0.03 µM) of the same molecule?
The viability, T/C was 7.69%.

What about the viability, T/C (second compound 3.16 µM, first compound 0.0949 µM) of the same molecule?
Its viability, T/C is 4.04%.

What about the viability, T/C (second compound 3.16 µM, first compound 0.3 µM) of the same molecule?
Its viability, T/C is 2.84%.

And the viability, T/C (second compound 10 µM, first compound 0.000949 µM)?
Its viability, T/C is 28.2%.

What about the viability, T/C (second compound 10 µM, first compound 0.003 µM) of the same molecule?
The viability, T/C was 19.4%.

And the viability, T/C (second compound 10 µM, first compound 0.00949 µM)?
The viability, T/C was 11.2%.

What about the viability, T/C (second compound 10 µM, first compound 0.03 µM) of the same molecule?
The viability, T/C was 5.94%.

And the viability, T/C (second compound 10 µM, first compound 0.0949 µM)?
The viability, T/C was 3.93%.

And the viability, T/C (second compound 10 µM, first compound 0.3 µM)?
The viability, T/C was 3.41%.

Which results are given for C=CC(=O)Nc1cc(Nc2nccc(-c3cn(C)c4ccccc34)n2)c(OC)cc1N(C)CCN(C)C + C=CC(=O)N1CCN(c2nc(OCC3CCCN3C)nc3c(F)c(-c4nc(N)cc(C)c4C(F)(F)F)c(Cl)cc23)C(C)C1?
IC50 (second compound 0.00316 µM): > 1000 nM; IC50 (second compound 0.01 µM): > 1000 nM; IC50 (second compound 0.0316 µM): > 1000 nM; IC50 (second compound 0.1 µM): > 1000 nM; IC50 (second compound 0.316 µM): > 1000 nM; IC50 (second compound 1 µM): > 1000 nM; viability, T/C (second compound 0.00316 µM, first compound 0.00316 µM): 103%; viability, T/C (second compound 0.00316 µM, first compound 0.01 µM): 89.9%; viability, T/C (second compound 0.00316 µM, first compound 0.0316 µM): 104%; viability, T/C (second compound 0.00316 µM, first compound 0.1 µM): 104%; viability, T/C (second compound 0.00316 µM, first compound 0.316 µM): 108%; viability, T/C (second compound 0.00316 µM, first compound 1 µM): 97.1%; viability, T/C (second compound 0.01 µM, first compound 0.00316 µM): 105%; viability, T/C (second compound 0.01 µM, first compound 0.01 µM): 96.9%; viability, T/C (second compound 0.01 µM, first compound 0.0316 µM): 94.8%; viability, T/C (second compound 0.01 µM, first compound 0.1 µM): 100%; viability, T/C (second compound 0.01 µM, first compound 0.316 µM): 115%; viability, T/C (second compound 0.01 µM, first compound 1 µM): 89.5%; viability, T/C (second compound 0.0316 µM, first compound 0.00316 µM): 100%; viability, T/C (second compound 0.0316 µM, first compound 0.01 µM): 98.9%; viability, T/C (second compound 0.0316 µM, first compound 0.0316 µM): 99.4%; viability, T/C (second compound 0.0316 µM, first compound 0.1 µM): 109%; viability, T/C (second compound 0.0316 µM, first compound 0.316 µM): 108%; viability, T/C (second compound 0.0316 µM, first compound 1 µM): 94.1%; viability, T/C (second compound 0.1 µM, first compound 0.00316 µM): 99.8%; viability, T/C (second compound 0.1 µM, first compound 0.01 µM): 98.6%; viability, T/C (second compound 0.1 µM, first compound 0.0316 µM): 99.7%; viability, T/C (second compound 0.1 µM, first compound 0.1 µM): 103%; viability, T/C (second compound 0.1 µM, first compound 0.316 µM): 100%; viability, T/C (second compound 0.1 µM, first compound 1 µM): 85%; viability, T/C (second compound 0.316 µM, first compound 0.00316 µM): 98%; viability, T/C (second compound 0.316 µM, first compound 0.01 µM): 93.1%; viability, T/C (second compound 0.316 µM, first compound 0.0316 µM): 111%; viability, T/C (second compound 0.316 µM, first compound 0.1 µM): 119%; viability, T/C (second compound 0.316 µM, first compound 0.316 µM): 117%; viability, T/C (second compound 0.316 µM, first compound 1 µM): 87.8%; viability, T/C (second compound 1 µM, first compound 0.00316 µM): 106%; viability, T/C (second compound 1 µM, first compound 0.01 µM): 96.8%; viability, T/C (second compound 1 µM, first compound 0.0316 µM): 110%; viability, T/C (second compound 1 µM, first compound 0.1 µM): 112%; viability, T/C (second compound 1 µM, first compound 0.316 µM): 106%; viability, T/C (second compound 1 µM, first compound 1 µM): 87.8%
